The source of these data is patent publication EP0199291A1 (priority 1985, dated 1986).

One data set concerns TNP-C3H. The settings on record: for cytotoxische Aktivität (% 51Cr-Freisetzung): Stimulans und Target TNP-C3H, 1 x 10^-2 mol/l, 5 days.
The next data set has as its system C57BL/6. As to conditions: Stimulans und Target C57BL/6, 1 x 10^-2 mol/l, 5 days.
The subject of data set [1] is IL 2 abhängige W-2 T-Zelllinie. The settings on record: control solutions with increasing amounts in culture medium.
Procedure: (§1) Die IL 2 Titer wurden mit der IL 2 abhängigen W-2 T-Zelllinie in bekannter Weise bestimmt.
Ansteigende Konzentrationen von Ornithin wurden Kulturen von con-A-aktivierten Konzentrationen von Ornithin C3H Milzzellen (10^7 Zellen + 5 µg con-A pro ml) zugesetzt. Die erhaltenen Überstände wurden 24 h später isoliert und auf Interleukin-2 und Interferonaktivität getestet. […] C3H Milzzellkulturen mit l ug/ml con-A sowie allogene "Genischte-Lymphozyten-Kulturen" mit 10^7 nicht-bestrahltenC3H Milzzellen' plus 10^7 nicht- bestrahltenC57BL/6 Milzzellen wurden eben- falls mit steigenden Konzentrationen von Ornithin angesetzt.
Data set [2] deals with con-A-aktivierte C3H Milzzellen. The settings on record: 9 x 10^-3 mol/l; Con A 5 µg/ml; 24 h (Fig. 5).
Procedure: as §1
(§2) Die resultierenden Überstände wurden dann durch Zentrifugation isoliert und auf Interleukin-2 und Interferon- Aktivität getestet, wie im Methodenteil beschrieben.
Ansteigende Konzentrationen von Ornithin wurden Kulturen von con-A-aktivierten Konzentrationen von Ornithin C3H Milzzellen (10^7 Zellen + 5 µg con-A pro ml) zugesetzt. Die erhaltenen Überstände wurden 24 h später isoliert und auf Interleukin-2 und Interferonaktivität getestet.
Data set [3] has as its system PMA-aktivierte EL-4 Thymomzellen. The settings on record: same concentrations as in Fig. 5.
Procedure: as §1
Die Überstände werden aus einer IL-2 produzierenden EL-4 Thymom-Sublinie nach Induktion mit Phorbolmyristinacetat (PMA) in bekannter Weise erhalten. Es wurden 10^6 EL-4 Zellen pro ml zusammen mit 10 ng/ml PMA (SIGMA) 48 h inkubiert. Die Überstände wurden gesammelt und bei -20°C gefroren gelagert.
as §2
[4] abbreviates: Angreifer:Targetzellen 1:1, control without additive 16,3.
Setting [5] is: Angreifer:Targetzellen 5:1, control without additive 32,0.
Setting [6] is: Angreifer:Targetzellen 25:1, control without additive 54,9.
Where [7] appears, read: summary statement, see Tabelle I.
[8] abbreviates: Angreifer:Targetzellen 1:1, control without additive 4,8.
Setting [9] is: Angreifer:Targetzellen 5:1, control without additive 17,7.
The mark [10] stands for this setting: Angreifer:Targetzellen 25:1, control without additive 33,5.

SMILES strings stand for the structures. Like-named read-outs stand apart in the source and are kept apart here.

Procedure for C57BL/6: (§3) 20 Millionen Responderzellen (üblicherweise C3H Milzzellen)wurden mit 1×10^6 bestrahlten (1500 rad) allogenen oder trinitrophenylierten syngenen Stimulatorzellen in einem Gesamtvolumen von 4,5 ml Kulturmedium (RPMI 1640, GIBCO Medium supplementiert mit 10mM L-Gutamin (GIBCO), Streptomycin/Penicillin (GIBCO), Streptomycin/ Penicillin (GIBCO; 100 units/ml), 0,5 % HEPES (GIBCO), 10% fötalem Kälberserum (GIBCO) und 3×10^-5 Mol/l 2-Mercaptoäthanol) 5 Tage bei 37°C in 5% CO2 incubiert. Responder-und Stimulatorzellen waren Milzzellen.
(§4) Die Kulturen wurden nach 5 Tagen auf cytotoxische Aktivität gegen Con A-aktivierte allogene oder trinitrophenylierte syngene Milzlynphoblasten in einem 4-Stunden 51Cr-Release assay in bekanntem Weise getestet.
(§5) Der Effekt in vitro (mittlere und rechte Zeichnung der Fig. 1) wurde wie folgt bestimmt: • C3H Milzzellen (2 x 10^7) wurden mit 1 x 10^6 bestrahlten und Trinitrophenylen-behandelten C3H Milzzellen (Mitte) oder 1 x 10^6 bestrahlte C57BL/6 Milzzellen (rechts) und mit den angegebenen Endkonzentrationen von Ornithin in 4,5 ml Kulturen 5 Tage inkubiert. Die cytotoxische Aktivität gegen die entsprechenden Targetzellen wurde nach 5 Tagen getestet.
(§6) C3H Milzzellen (2 x 10^7) wurden mit 1 x 10^6 bestrahlten und Trinitrophenylen-behandelten C3H Milzzellen (links) oder 1 x 10^6 bestrahlten C57BL/6 Milzzellen (rechts) in 4,5 ml Kulturen 5 Tage inkubiert. […] Die Abszisse zeigt die Endkonzentration von Ornithin in der Kultur. Die cytotoxische Aktivität gegen die entsprechenden Targetze1len wurde nach 5 Tagen bei Angreifer: Ziel-Zellen-Verhältnissen von 25:1, 5:1 und 1:1 untersucht. Figur 3 zeigt die relative cytotoxische Aktivität beim Angreifer: Ziel-Zellen-Verhältnis 25:1. (Die Kontrollantwort ohne Ornithin zeigte 54% (links) bzw. 50% (rechts) ^51Cr-release).
(§7) Die Ergebnisse geben die cytotoxische Aktivität (% ^51Cr-Freisetzung) gegen homologe Targetzellen nach 5 Tagen bei Angreifer:Targetzel len-Verältnissen von 25:1, 5:1 und 1:1 an.
Procedure for TNP-C3H: as §3, §4, §5, §6, §7

As for `N[C@@H](Cc1c[nH]cn1)C(=O)O` [L-Hystidin, L-Histidin], the “cytotoxische Aktivität (% 51Cr-Freisetzung)” value in the data set with TNP-C3H (setting [4]) was 11,1%; with TNP-C3H (setting [5]) it was 27,8%; in the data set with TNP-C3H (setting [6]) it was 48,5%; with C57BL/6 (setting [8]) it was 5,1%; in the data set with C57BL/6 (setting [9]), 11,4%; in the data set with C57BL/6 (setting [10]) it was 24,5%. The “Hemmwirkung auf die Aktivierung cytotoxischer T-Lymphozyten” value in the data set with TNP-C3H (setting [7]) is listed as “nicht zu beobachten”.

Consider `NCCCCN` [Putrescin], for which, in the data set on TNP-C3H, the “Hemmwirkung auf die Aktivierung cytotoxischer T-Lymphozyten” value is listed as “nicht zu beobachten”.

As to `NCCCC[C@H](N)C(=O)O` [L-Lysin], the “cytotoxische Aktivität (% 51Cr-Freisetzung)” value in the data set with TNP-C3H (setting [4]) was 21,5%; in the data set with TNP-C3H (setting [5]), 39,9%; with TNP-C3H (setting [6]) it was 60,7%; in the data set on C57BL/6 (setting [8]), 9,0%; in the data set with C57BL/6 (setting [9]), 19,1%; in the data set with C57BL/6 (setting [10]), 41,7%. Moreover, the “Hemmwirkung auf die Aktivierung cytotoxischer T-Lymphozyten” value in the data set on TNP-C3H (setting [7]) was “nicht zu beobachten”.

As for `C[C@H](N)C(=O)O` [L-Alanin], the “Hemmwirkung auf die Aktivierung cytotoxischer T-Lymphozyten” value in the data set with TNP-C3H was “nicht zu beobachten”.

`NCCC[C@H](N)C(=O)O` [L-Ornithin]: the “Interleukin-2-Aktivität (of the substance itself)” value in data set [1] was “keine Interleukin-2 oder Interferon-Aktivität”. In data set [2], the “Effekt auf die Produktion von IL-2” value was “keinen wesentlichen Effekt”. The “Interleukin-2-Produktion von PMA-aktivierten EL-4 Thymomzellen” value in data set [3] is on record as “nicht supprimiert”.
